Laboratory results from the CheMixHub viscosity set.

Assay: xn = mol fraction of the nth substance listed

Cc1cccc(Cl)c1 + Nc1cccc(Cl)c1
viscosity [mPa·s], 100 kPa
Conditions | x2 = 0.0705 | x2 = 0.1546 | x2 = 0.2565 | x2 = 0.3413 | x2 = 0.4391 | x2 = 0.5101 | x2 = 0.6494 | x2 = 0.7592 | x2 = 0.8887
303.15 K | 0.9978 | 1.301 | 1.665 | 1.967 | 2.313 | 2.563 | 3.05 | 3.431 | 3.876
308.15 K | 0.9306 | 1.202 | 1.529 | 1.8 | 2.11 | 2.333 | 2.769 | 3.109 | 3.505
313.15 K | 0.8678 | 1.109 | 1.398 | 1.636 | 1.909 | 2.106 | 2.489 | 2.788 | 3.137
318.15 K | 0.8037 | 1.014 | 1.265 | 1.473 | 1.71 | 1.88 | 2.212 | 2.471 | 2.771

CCOCCO + Nc1ccccc1
303.15 K, 101 kPa
Conditions | viscosity [mPa·s]
x2 = 0.1062 | 2.266
x2 = 0.2109 | 2.394
x2 = 0.3142 | 2.523
x2 = 0.4162 | 2.74
x2 = 0.5167 | 2.94
x2 = 0.616 | 3.114
x2 = 0.7139 | 3.277
x2 = 0.8105 | 3.435
x2 = 0.9059 | 3.595

CC(C)CCCCCCCOC(=O)c1ccccc1C(=O)OCCCCCCCC(C)C + O
viscosity [mPa·s], 101 kPa
Conditions | 293.23 K | 298.26 K
x2 = 0.0005 | 122.8 | 87.79
x2 = 0.00265 | 122.3 | 87.38

CC(C)CCO + O
Conditions | viscosity [mPa·s]
293.15 K, 101.33 kPa, x1 = 0.0021 | 1.074
293.15 K, 101.33 kPa, x1 = 0.0042 | 1.123
293.15 K, 101.33 kPa, x1 = 0.0052 | 1.47
298.15 K, 101 kPa, x2 = 0.0019 | 3.738
298.15 K, 101 kPa, x2 = 0.0485 | 3.634
298.15 K, 101 kPa, x2 = 0.091 | 3.563
298.15 K, 101 kPa, x2 = 0.1325 | 3.518
298.15 K, 101 kPa, x2 = 0.1769 | 3.49
298.15 K, 101 kPa, x2 = 0.2065 | 3.482
298.15 K, 101 kPa, x2 = 0.2272 | 3.48
298.15 K, 101 kPa, x2 = 0.2538 | 3.486
298.15 K, 101 kPa, x2 = 0.3132 | 3.518
303.15 K, 101.33 kPa, x1 = 0.0021 | 0.851
303.15 K, 101.33 kPa, x1 = 0.0042 | 0.894
303.15 K, 101.33 kPa, x1 = 0.0052 | 0.907
313.15 K, 101.33 kPa, x1 = 0.0021 | 0.693
313.15 K, 101.33 kPa, x1 = 0.0042 | 0.721
323.15 K, 101.33 kPa, x1 = 0.0021 | 0.59
323.15 K, 101.33 kPa, x1 = 0.0042 | 0.617
